Earlier results, collected in patent US20220218780A1, “Composition for Improving Vascular Endothelial Function or Improving Blood Flow in Peripheral Blood Vessels” (House Wellness Foods Corporation, priority 2018, published 2022).

Tested on: vascular endothelial function
Settings: diabetes rat models, continuous oral administration every day, 30 mg/kg and 300 mg/kg body weight

SMILES: COc1cc(/C=C/C(=O)CC(=O)/C=C/c2ccc(O)c(OC)c2)ccc1O [curcumin]
- reduction in vascular endothelial function associated with diabetes: improved
